Data published in patent publication US8741882B2, “Anti-diabetic compounds” (Sen Capital, LLC., priority 2012, dated 2014).
Counter-ions that a name gives are not always drawn.

Experiments:
ICR mouse = test: Animal test: blood glucose after oral glucose load in mice dosed by oral gavage; assay type: in vivo; settings: for response versus vehicle control (negative group), p<0.05 / Means at 20 min. (mean value of glucose level at 20 min. minus glucose level at time zero, before glucose dosing) / blood glucose level as compared with the Vehicle group during the test period (FIG. 5): ICR mouse; for response versus vehicle control (negative group), p<0.05: Metformin Hydrochloride 150 mg/kg, Compound 2 525 and 1050 mg/kg; for Means at 20 min. (mean value of glucose level at 20 min. minus glucose level at time zero, before glucose dosing): 1.5 g/kg glucose 30 min after dosing, in mg/dL; for blood glucose level as compared with the Vehicle group during the test period (FIG. 5): oral gavage, doses as in Table 1
Description: Approximately 7-9-week-old ICR mouse were purchased from BioLASCO Taiwan Co., Ltd (Taipei, Taiwan).
Linear analysis of the glucose monitoring system: eight concentrations (0, 50, 100, 200, 300, 400, 500, 600 mg/dL) of glucose solution were determined duplicate. The animals were fasted approximately 4 hours before dosing. Then, the animals were administered with the test compounds via oral gavage. After 30 minutes of the test compound dosed, the animals were administered with 1.5 g/kg glucose solution (Concentration: 0.15 g/mL, Dose volume: 10 mL/kg) via oral gavage. The blood glucose was determined before the test compound dosing, before glucose dosing, and after glucose dosing in 5, 15, 20, 25, 30, 40 and 50 minutes.
The results were expressed as means and the statistical significance was evaluated by analysis of variance (ANOVA) followed by least significance difference post hoc test. A level of p<0.05 was considered statistically significant.

[1] = following oral administration; cited from earlier work

Row | Structure (SMILES) | response versus vehicle control (negative group), p<0.05 (ICR mouse) | Means at 20 min. (mean value of glucose level at 20 min. minus glucose level at time zero, before glucose dosing) (ICR mouse; Test 1, 525 mg/kg oral gavage) | Means at 20 min. (mean value of glucose level at 20 min. minus glucose level at time zero, before glucose dosing) (ICR mouse; Test 2, 1050 mg/kg oral gavage) | blood glucose level as compared with the Vehicle group during the test period (FIG. 5) (ICR mouse) | effect on hyperglycemia in terms of efficacy in lowering blood glucose in animals (ICR mouse; summary of Example 3) | Means at 20 min. (mean value of glucose level at 20 min. minus glucose level at time zero, before glucose dosing) (ICR mouse; 150 mg/kg oral gavage) | absorbed drug eliminated via the renal route within the first 24 hours [1]
1 | COC(=O)CC[C@@H](C)[C@H]1CC[C@H]2[C@@H]3[C@H](O)C[C@@H]4C[C@H](OC(=O)NC(=N)NC(=N)N(C)C)CC[C@]4(C)[C@H]3C[C@H](O)[C@]12C [Compound 2] | significantly different | 225.8 | 225.8 | lowered | improved hyperglycemia | – | –
2 | CN(C)C(=N)N=C(N)N [Metformin Hydrochloride] | significantly different | – | – | lowered | – | 125.4 | –
3 | CN(C)C(=N)NC(=N)N [Metformin, N,N-dimethylimidodicarbonimidic diamide] | significantly different | – | – | – | – | – | approximately 90%
